# Measured values: PMC3934894, “Inhibition of Human and Yeast 20S Proteasome by Analogues of Trypsin Inhibitor SFTI-1” (PLoS ONE, 2014)
# Assays:
# bovine α-chymotrypsin = test system: bovine α-chymotrypsin; set-up: method as in PMID 15746161; details: determined previously in the authors' laboratory; cited from earlier work
# bovine β-trypsin = details: cited from earlier work
# 20S proteasome = test system: 20S proteasome; set-up: method as in PMID 19054805; details: cited from earlier work
# [1] = target: human 20S proteasome, caspase-like (C-L) activity (Homo sapiens, UniProt P28072); assay: C-L activity of SDS-activated human 20S proteasome (Z-LLE-AMC); details: read-out: C-like Human 20S IC50; SDS-activated human 20S, pH 8.1, 37°C, Z-LLE-AMC 79 µM
# Protocol: An assay buffer was composed of 50 mM Tris-HCl (pH 8.1) and 0.02% (w/v) SDS (exceptionally, T-L activity was measured in Tris buffer without SDS, that may trigger precipitation of substrates containing the guanidino group [21]). […] The SFTI-1 analogues were incubated with 20S proteasome in assay buffer at 37°C for 30 min. Reactions were performed in 96-well black BRAND plates (Germany). The final volume of the solution in each well was 200 µL. […] Proteasomal subsite activities were determined by monitoring the AMC liberation over time with a Fluorostar Omega (BMG Labtech, Germany) using excitation and emission wavelengths of 380 nm and 450 nm, respectively. […] Association constants Ka were measured as described previously [14] and calculated using a two-parameter fit model (using the GraFit software package).
# [2] = test system: 20S proteasome, ChT-L activity; details: cited from earlier work
# [3] = test system: 20S proteasome, T-L activity; details: cited from earlier work
# [4] = test system: 20S proteasome, C-L activity; details: cited from earlier work
# HCT-116 = test system: HCT-116; set-up: method as in PMID 10805568; details: human cancer cells HCT-116; read-out: cytotoxic activity IC50, HCT-116; cited from earlier work
# HL-60 = test system: HL-60; set-up: method as in PMID 10805568; details: human cancer cells HL-60; read-out: cytotoxic activity IC50, HL-60; cited from earlier work
molecule,measurement,setting,value
[Phe^5]SFTI-1,Ka with bovine α-chymotrypsin,bovine α-chymotrypsin,2e+09 M⁻¹
sunflower trypsin inhibitor SFTI-1,association constant Ka with trypsin,bovine β-trypsin,1.1e+10 M⁻¹
same,Ki,"bovine β-trypsin; read-out: inhibitory constant Ki, trypsin",0.5 nM
same,inhibition of 20S proteasome,20S proteasome,does not cause any inhibition
same,IC50,[1],58200 nM
C/C=C\NC(=O)[C@H]1NC(=O)[C@H](CC(N)=O)NC(=O)[C@@H](NC(=O)C(=O)[C@@H](C)CC)Cc2ccc(O)c(c2)-c2cccc3c2NC(=O)[C@@]3(O)[C@@H]1O [TMC-95A],IC50,[2]; read-out: IC50 ChT-L activity of 20S proteasome,5.4 nM
same,Ki,[2]; read-out: Ki app (apparent Ki constant) ChT-L,1.1 nM
same,IC50,[3]; read-out: IC50 T-L activity of 20S proteasome,200 nM
same,Ki,[3]; read-out: Ki app (apparent Ki constant) T-L,810 nM
same,IC50,[4]; read-out: IC50 C-L activity of 20S proteasome,60 nM
same,Ki,[4]; read-out: Ki app (apparent Ki constant) C-L,29 nM
same,IC50,HCT-116,4400 nM
same,IC50,HL-60,9800 nM
